{"source": "patent US20250000881A1", "about": "“TREATMENT OF TREATMENT RESISTANT […] PSILOCYBIN” (COMPASS […], priority 2021, published 2025)", "assay_type_in_all_cases": "in vivo, human", "key": {"adult subjects with TRD [1]": {"tested_on": "adult subjects with TRD", "assay": "Phase 2b trial in TRD: participants starting new treatment for depression", "procedure": "All subjects were asked to remain off their antidepressant medications for at least 3 weeks following the psilocybin session until the primary endpoint assessment, or longer. Rescue medications were allowed and described in the Rescue Medications section below. Subjects who restarted their antidepressant medications during the first 3 weeks after the psilocybin treatment administration were assessed for reasons of resuming their medications and followed until 12 weeks post-psilocybin administration."}, "adult subjects with TRD [2]": {"tested_on": "adult subjects with TRD", "assay": "Phase 2b trial in TRD: Positive and Negative Affect Schedule (PANAS)", "settings": "25 mg vs 1 mg group, week 3", "procedure": "(§1) Other objectives were to evaluate the effects of psilocybin on quality of life and wellbeing, functioning and associated disability, cognitive function, and anxiety compared to 1 mg psilocybin on: • (a) Quality of life in subject EuroQoL (EQ)-5 dimension-3 level scale (EQ-5D-3L) score change from Baseline to week 3. This will also be assessed at week 12. This assessment was not mandatory. • (b) Quality of life in caregiver EQ-5D-3L score change from Baseline to week 3. This was assessed at week 12. • (c) Functioning and associated disability in the Sheehan Disability Scale (SDS) score change from Baseline to week 3. This was also assessed at week 12. • (d) Cognitive function as measured by the Digit Symbol Substitution Test (DSST) score change from baseline to week 3. This was assessed at day 1 and week 12. • (e) Level of anxiety as measured using the change in Generalised Anxiety Disorder 7 item Scale (GAD-7) total score change from baseline to week 3. This was assessed at week 12. • (f) Subject determined level of depression as measured using the change in Quick Inventory of Depressive Symptomatology Self-Rated (QIDS-SR-16) total score from Baseline to week 3. […] This was assessed at week 12. • (h) To evaluate the impact of different psilocybin doses on real life functional activity estimated from passive data streams collected on a mobile app on subjects' mobile phones. […]"}, "adult subjects with TRD [3]": {"tested_on": "adult subjects with TRD", "assay": "Phase 2b trial in TRD: EQ-5D-3L and EuroQoL Visual Analogue Scale quality of life", "settings": "25 mg vs 1 mg, week 3", "procedure": "as §1"}}}
{"smiles": "CN(C)CCc1c[nH]c2cccc(OP(=O)(O)O)c12", "note": "[COMP360, psilocybin]", "values": [{"measurement": "Participants started new treatment for depression", "setting": "adult subjects with TRD [1]; 1 mg (N = 79), Day 2", "result": 0, "unit": "n"}, {"measurement": "Participants started new treatment for depression", "setting": "adult subjects with TRD [1]; 10 mg (N = 75), Day 2", "result": 0, "unit": "n"}, {"measurement": "Participants started new treatment for depression", "setting": "adult subjects with TRD [1]; 25 mg (N = 79), Day 2", "result": 0, "unit": "n"}, {"measurement": "Participants started new treatment for depression", "setting": "adult subjects with TRD [1]; 25 mg (N = 79), Week 1", "result": 0, "unit": "n"}, {"measurement": "Participants started new treatment for depression", "setting": "adult subjects with TRD [1]; Overall (N = 233), Day 2", "result": 0, "unit": "n"}, {"measurement": "PANAS negative affect, least squares mean (95% confidence intervals) treatment difference", "setting": "adult subjects with TRD [2]", "result": "−3.18 (−5.59, −0.77)"}, {"measurement": "PANAS positive affect, least squares mean (95% confidence intervals) treatment difference", "setting": "adult subjects with TRD [2]", "result": "6.17 (3.53, 8.82)"}, {"measurement": "EQ-5D-3L total score, least squares mean treatment difference", "setting": "adult subjects with TRD [3]", "result": 0.06}, {"measurement": "EuroQoL Visual Analogue Scale treatment difference", "setting": "adult subjects with TRD [3]", "result": 6.77}]}
